We go through two compounds from patent US20220378789A1, “METHODS OF ADMINISTERING ELAGOLIX IN ASSOCIATION WITH ARTIFICIAL REPRODUCTIVE TECHNOLOGIES” (priority 2021, published 2022).

Non-standard residues stand in square brackets, D forms with d. Residues, ends and D or L forms follow the SMILES beside them. d(hArg(Et2)) = CCN=C(NCC)NCCCC[C@@H](N)C(=O)O; hArg(Et2) = CCN=C(NCC)NCCCC[C@H](N)C(=O)O; dPhe(4-Cl) = N[C@H](Cc1ccc(Cl)cc1)C(=O)O; d2Nal = N[C@H](Cc1ccc2ccccc2c1)C(=O)O; d3Pal = N[C@H](Cc1cccnc1)C(=O)O

The target of data set [1] is T1, GnRH receptor (Homo sapiens, UniProt P30968).
T1 construct: from tissue; host or cells: anterior pituitary gland of the oocyte donors (in vivo)
T1 sequence (P30968 1-328): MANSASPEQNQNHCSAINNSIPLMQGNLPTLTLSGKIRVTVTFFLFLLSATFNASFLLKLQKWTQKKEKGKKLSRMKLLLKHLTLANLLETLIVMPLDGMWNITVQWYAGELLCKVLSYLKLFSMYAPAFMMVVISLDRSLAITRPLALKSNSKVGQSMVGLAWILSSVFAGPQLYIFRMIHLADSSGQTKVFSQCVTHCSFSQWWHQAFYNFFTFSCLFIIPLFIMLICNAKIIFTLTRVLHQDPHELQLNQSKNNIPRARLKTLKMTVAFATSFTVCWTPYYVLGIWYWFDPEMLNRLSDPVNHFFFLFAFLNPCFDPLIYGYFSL
Description: Cohort study of oocyte donors in an assisted reproductive technology cycle: ovulation suppression during ovarian stimulation. It counts as in vivo. Particulars: for premature ovulation: Elagolix 200 mg PO QHS vs Ganirelix 250 mcg SQ QHS, 75 donors per group; for Avg. Peak Estradiol / Avg. Peak LH / Avg. Peak Progesterone / Days of Stimulation / Avg. Matures Oocytes / Avg. Oocytes / Avg. Cum GN Dose: group mean; for Avg. Matures Oocytes: mature oocytes at retrieval; for Avg. Oocytes: oocytes retrieved; for Avg. Cum GN Dose: total gonadotropins consumed per cycle. How it is done:
An example of a method of the present disclosure includes a Western IRB approved (WIRB® Protocol #20191163) cohort study of 75 oocyte donors undergoing an assisted reproductive technology cycle receiving Elagolix 200 mg PO QHS for ovulation suppression compared to 75 historical donors given Ganirelix 250 mcg SQ QHS. Ovarian stimulation involved 10 days of oral contraceptive pretreatment. A recombinant FSH (Gonal F) starting dosage was based on donor age, AMH and BMI. 20 U HCG addback was given throughout the cycle with antagonists administered with a lead follicle of greater than 14 mm. […] Secondary outcomes are the number of mature oocytes at oocyte retrieval, the maximum estradiol level, the total amount of gonadotropins consumed, and the number of injections and patient cost.
The study medication was an orally bioavailable GnRH antagonist marketed by ABBVIE under the brand name ORILISSA® (Elagolix). The 200 mg dose was administered orally with once daily dosing.
A study comprised 75 oocyte donors from whom data for 75 assisted reproductive technology cycles over the course of a two-year period was collected. Upon completion of data collection, a treatment group and an age and weight-matched control group were compared and assessed on the basis of demographic data, health history, ovarian reserve, and information regarding their ovarian stimulation cycles using Pearson χ2 and Student's t-tests. The primary outcome—premature ovulation rate—was evaluated using Chi squared tests. The secondary outcomes—number of mature oocytes, the maximum estradiol level, and the total amount of gonadotropins consumed—were compared using Student's t-tests.
Protocol for Oocyte Donation with Elagolix for Ovulation Suppression 1. Prospective donor accepted into FDA-accredited egg donation program after successful completion of screening and the signing of the medical consent forms. 2. Oocyte donor given opportunity to volunteer to participate in the study. Oocyte donor given an IRB approved informed consent document and HIPAA authorization for Oocyte Donation with Elagolix for Ovulation Suppression Protocol. 3. Oocyte donor begins oral contraceptives to lead into ovarian stimulation. 4. Oocyte donor discontinues oral contraceptives after 10 to 14 days of administration. 5. 3 days after discontinuing oral contraceptives, oocyte donor begins daily SQ injections of rFSH with the dose based upon age, follicle stimulating hormone (FSH), antimullerian hormone (AMH) and antral follicular count. 6. On day 4 of rFSH medications, the practitioner obtains an estradiol level from an oocyte donor. The rFSH dose will be adjusted as necessary. 7. At 2 to 3 days intervals of medications, the practitioner obtains an estradiol level and performs a transvaginal ultrasound for oocyte donor; an rFSH dose will be adjusted according to the results of the estradiol level and transvaginal ultrasound. 8. Once a 14 mm lead follicle is noted on the ultrasound, the practitioner administers 20 U per day of SQ hCG along with Elagolix 200 mg PO QD, taken at 10 pm. Elagolix is administered for a minimum of 1 day and a maximum of 6 days. 9. Administration of Elagolix 200 mg PO QD is discontinued 24 hours prior to the ovulatory, GnRH agonist trigger. 10. Ovarian stimulation is continued as outlined until oocyte maturity is reached based on follicular number, follicular size, cycle day and estradiol levels, at which time an ovulatory, GnRH agonist was used to induce ovulation and egg retrieval was performed per protocol. All mature eggs are either fertilized with the intended parent's sperm or cryopreserved for future used in egg donation.

The conditions of data set [2]: oral administration; cited from earlier work.
Data set [3] has as its target T1, GnRH receptor. To be noted: cited from earlier work.

With `COc1cccc(-c2c(C)n(Cc3c(F)cccc3C(F)(F)F)c(=O)n(C[C@H](NCCCC(=O)[O-])c3ccccc3)c2=O)c1F.[Na+]` [Elagolix, 4-((R)-2-[5-(2-fluoro-3-methoxy-phenyl)-3-(2-fluoro-6-trifluoromethyl-benzyl)-4-methyl-2,6-dioxo-3,6-dihydro-2H-pyrimidin-1-yl]-1-phenyl-ethylamino)-butyric acid sodium salt], at GnRH receptor [1], the premature ovulation entry is on record as “no instances of premature ovulation”, the “Avg. Peak Estradiol” value was 3959, the “Avg. Peak LH” value is given as 0.94 and the “Avg. Peak Progesterone” value was found to be 1.9. For the same compound, at GnRH receptor [1], the “Days of Stimulation” value came to 10.49, the “Avg. Matures Oocytes” value was 24.73, the “Avg. Oocytes” value came to 30.31 and the “Avg. Cum GN Dose” value was 2855. In addition, in data set [2], the “estimated half-life (t1/2)” value was 4 to 6 h and the “median time of maximum plasma concentration (Tmax)” value was 0.5 to 1 h. Besides, at GnRH receptor [3] (4 hours after administration of a single dose), the LH levels is listed as 22-35 % baseline. Also, the “time for LH concentrations to rebound to about baseline levels or above” value on GnRH receptor [3] (after the last dose, all dose levels) is 24 to 48 h. Further, on GnRH receptor [3] (all participants at doses of 100 mg BID or higher, maintained throughout the 7-day study with daily dosing), the anovulatory concentrations entry is given as “Anovulatory concentrations were observed in all participants”. For the same compound, at GnRH receptor [3] (all participants at doses of 200 mg BID and higher), the “estradiol concentration at maximum suppression” value is around 11.8 pg/mL. For the same compound, the “estradiol remaining partially suppressed” value at GnRH receptor [3] (at 24 hours, most groups) is 42-65 % of baseline. Moreover, the safety profile result at GnRH receptor [3] (doses up to 400 mg twice per day (BID)) is given as “acceptable safety profile”. Moreover, on GnRH receptor [3] (healthy premenopausal women), the adverse events result is “No clinically significant adverse events occurred” and the tolerability result is listed as “well tolerated”. Moreover, at GnRH receptor [3] (more sustained suppression at higher doses), the “dose giving maximum inhibition of LH” value is recorded as at least 200 mg BID.
Regarding `CCN=C(NCC)NCCCC[C@H](NC(=O)[C@H](CC(C)C)NC(=O)[C@@H](CCCCNC(=NCC)NCC)NC(=O)[C@H](Cc1ccc(O)cc1)NC(=O)[C@H](CO)NC(=O)[C@@H](Cc1cccnc1)NC(=O)[C@@H](Cc1ccc(Cl)cc1)NC(=O)[C@@H](Cc1ccc2ccccc2c1)NC(C)=O)C(=O)N1CCC[C@H]1C(=O)N[C@H](C)C(N)=O` [Ganirelix] (Ac-[d2Nal][dPhe(4-Cl)][d3Pal]SY[d(hArg(Et2))]L[hArg(Et2)]P[dA]-NH2), at GnRH receptor [1], the premature ovulation entry was “no instances of premature ovulation”, the “Avg. Peak Estradiol” value stood at 3764, the “Avg. Peak LH” value is on record as 1.3 and the “Avg. Peak Progesterone” value stood at 2.3. On GnRH receptor [1], the “Days of Stimulation” value amounted to 10.06, the “Avg. Matures Oocytes” value is reported as 25.42, the “Avg. Oocytes” value is on record as 30.55 and the “Avg. Cum GN Dose” value amounted to 2741.
